Test results reported in PubChem BioAssay (NCI).
Where “and” joins values, the source holds several entries; their conditions need not be identical. Identical values can stand only once.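 The compound was tested at five concentrations on cells cultured in 96-well plates, with a 48-hour exposure period. GI50: concentration for 50% inhibition of growth. At the TGI there is no net growth.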

Legend:
Assay in all cases: NCI anticancer screen, dose series, 48 h
SR leukemia = test system: SR leukemia
HCT-15 colon = test system: HCT-15 colon
MDA-MB-435 = test system: MDA-MB-435
CCRF-CEM leukemia = test system: CCRF-CEM leukemia
SF-539 CNS = test system: SF-539 CNS
786-0 renal = test system: 786-0 renal
OVCAR-4 ovarian = test system: OVCAR-4 ovarian
SNB-19 CNS = test system: SNB-19 CNS
CAKI-1 renal = test system: CAKI-1 renal
NCI-H23 lung = test system: NCI-H23 lung

Row | Structure (SMILES) | GI50 (SR leukemia) | TGI (SR leukemia) | GI50 (HCT-15 colon) | TGI (HCT-15 colon) | GI50 (MDA-MB-435) | TGI (MDA-MB-435) | GI50 (CCRF-CEM leukemia) | TGI (CCRF-CEM leukemia) | GI50 (SF-539 CNS) | TGI (SF-539 CNS) | GI50 (786-0 renal) | TGI (786-0 renal) | GI50 (OVCAR-4 ovarian) | TGI (OVCAR-4 ovarian) | GI50 (SNB-19 CNS) | TGI (SNB-19 CNS) | GI50 (CAKI-1 renal) | TGI (CAKI-1 renal) | GI50 (NCI-H23 lung) | TGI (NCI-H23 lung)
1 | O=C1C(Nc2ccc(Cl)cc2)=C(I)C(=O)c2ncccc21 | 301 nM | 2.28 µM | 373 nM | 1.82 µM | 1.43 µM | 2.9 µM | 784 nM | 5.88 µM | 1630 nM | 3 µM | 0.91 µM | 2.25 µM | 0.989 µM | 2.19 µM | 1.61 µM | 3.23 µM | 0.327 µM | 1.54 µM | 1250 nM | 3.17 µM
2 | Cc1cc(NC(=O)NC(=O)c2ccccc2NC(=O)C(C)N)ccc1Oc1ncc(Br)cn1 (stereo not drawn) | – | 45.3 µM | – | 39.1 µM | – | 0.257 µM | – | 17.4 µM | – | 0.0431 µM | – | 9.56 µM | – | 36.7 µM | – | 56.3 µM | – | – | – | 8.56 µM
3 | O=C(Nc1ccc(Br)cc1F)c1cc(I)ccc1O | 2710 nM | > 100 µM | 2940 nM | 12.7 µM | 3.04 µM | 10.1 µM | 3580 nM | > 100 µM | 2800 nM | 12.1 µM | 3.32 µM | 11.4 µM | 3.16 µM | > 100 µM | 3.08 µM | > 100 µM | 1.83 µM | 6.51 µM | 1900 nM | 6.01 µM
4 | COc1ccc2c(CN3CCCC[C@H]3C(=O)O)cc3cc4c(cc3c2c1)OCO4 | – | – | 1400 nM | 12.7 µM | 1.05 µM | 4.09 µM | 2940 nM | 13.5 µM | 4540 nM | 16.2 µM | 6.71 µM | > 100 µM | – | – | 1.59 µM | 5.74 µM | 0.747 µM | 3.37 µM | 3250 nM | > 100 µM
5 | NC(=O)N/N=C1/CCC(O)CC1CC(=O)O (stereo not drawn) | – | > 100 µM | – | > 100 µM | – | > 100 µM | – | > 100 µM | – | > 100 µM | – | > 100 µM | – | > 100 µM | – | > 100 µM | – | > 100 µM | – | > 100 µM
6 | Cn1ncnc1[C@H]1c2n[nH]c(=O)c3cc(F)cc(c23)N[C@@H]1c1ccc(F)cc1 | 41.7 nM | > 100 µM | > 100000 nM | > 100 µM | > 100 µM | > 100 µM | 1270 nM | > 100 µM | – | > 100 µM | > 100 µM | > 100 µM | 14.6 µM | > 100 µM | 22.8 µM | > 100 µM | 5.89 µM | > 100 µM | > 34500 nM | > 100 µM
7 | O=C1CCCCCCCCCCC1CN1CCCC1 (stereo not drawn) | – | – | – | > 100 µM | – | > 100 µM | – | > 100 µM | – | 65.1 µM | – | 44.7 µM | – | – | – | > 100 µM | – | > 100 µM | – | > 100 µM
8 | Cc1ccc(S(=O)(=O)c2c(COC(=O)c3cccc(C)c3)c(-c3ccccc3)nn2C)cc1 | > 100000 nM | > 100 µM | > 100000 nM | > 100 µM | > 100 µM | > 100 µM | > 100000 nM | > 100 µM | > 100000 nM | > 100 µM | > 100 µM | > 100 µM | > 100 µM | > 100 µM | > 100 µM | > 100 µM | > 100 µM | > 100 µM | > 100000 nM | > 100 µM
9 | O=C1Nc2ccc(Br)cc2C1=Nc1cccnc1 | – | – | – | 59.6 µM | – | 28.9 µM | – | 57.4 µM | – | 30 µM | – | 44.7 µM | – | 25.1 µM | – | > 100 µM | – | > 100 µM | – | 45.4 µM
10 | CSC1=C(N)C(=O)c2[nH]cc(CO)c2C1=N | 221 nM | 0.659 µM | 163 nM | 0.382 µM | 0.0473 µM | 0.165 µM | 223 nM | 0.762 µM | 171 nM | 0.309 µM | 1.44 µM | 3.24 µM | 0.123 µM | 0.249 µM | 0.155 µM | 0.295 µM | – | – | 109 nM | 0.344 µM
11 | Nc1ncnc2c1N=C(c1ccc3c(c1)OCO3)CC(c1ccc([N+](=O)[O-])cc1)N2 (stereo not drawn) | 2370 nM | 67.9 µM | 9550 nM | > 100 µM | 62 µM | > 100 µM | – | – | > 100000 nM | > 100 µM | 79.1 µM | > 100 µM | > 100 µM | > 100 µM | 84.9 µM | > 100 µM | 25.5 µM | > 100 µM | > 100000 nM | > 100 µM
12 | O=S(=O)(/C=C/c1ccc(F)cc1)Cc1ccc(CS(=O)(=O)/C=C/c2ccc(F)cc2)cc1 | – | > 100 µM | – | > 100 µM | – | – | – | > 100 µM | – | > 100 µM | – | > 100 µM | – | > 100 µM | – | > 100 µM | – | > 100 µM | – | > 100 µM
13 | Cc1ccccc1C1OC(=O)c2ccc3ccccc3c21 (stereo not drawn) | – | 7.96 µM | – | 9.44 µM | – | – | – | 17.6 µM | – | 13.4 µM | – | 18.9 µM | – | 19.2 µM | – | > 91.5 µM | – | 88.4 µM | – | 20.7 µM
14 | O=C1C(c2ccccc2)=C(O)c2cccc3cccc1c23 | – | > 100 µM | – | > 100 µM | – | – | – | > 100 µM | – | > 100 µM | – | > 100 µM | – | > 100 µM | – | > 100 µM | – | > 100 µM | – | > 100 µM
15 | CC1(C)C2CCC13C(=O)C1OC3(C2)C2C(=O)c3ccccc3C(=O)C12 (stereo not drawn) | > 100000 nM | > 100 µM | 79400 nM | > 100 µM | > 100 µM | > 100 µM | 97000 nM | > 100 µM | > 100000 nM | > 100 µM | > 100 µM | > 100 µM | – | – | > 100 µM | > 100 µM | 21.9 µM | 72.8 µM | > 100000 nM | > 100 µM
16 | C[C@@]12CCC(=O)c3coc(c31)C(=O)c1cc3c(cc12)C(=O)C=CC3=O | > 1000 nM | > 71.2 µM | > 1000 nM | > 1 µM and 32.7 µM | – | – | – | > 23.2 µM | < 1000 nM | > 1 µM and 31.7 µM | > 1 µM | > 1 µM and 31 µM | > 1 µM | > 1 µM and 32.1 µM | > 1 µM | > 100 µM | > 1 µM | > 1 µM and 38.4 µM | – | 26.2 µM
